Source: US7812022B2 (GlaxoSmithKline LLC, priority 2004, dated 2010)

Assays:
ErbB2 or EGFR = target: T1, ErbB2 or EGFR; assay: ErbB family substrate phosphorylation enzyme assay (HTRF), Method A or Method B; format: biochemical
T1 construct: enzymes purified from a baculovirus expression system; Reagent production was conducted essentially as described in Brignola, P. S., et al, (2002) J. Biol. Chem. 277(2): 1576-1585
Outline: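 Baculovirus-expressed EGFR or ErbB2 (0.8 or 10 nM in enzyme mix) phosphorylates biotinylated Peptide C with 20 µM ATP and 0.8 µM peptide (substrate-mix levels), MnCl2, pH 7.5. Reaction ran 90 min at 20 °C with EDTA stop and HTRF anti-phosphotyrosine read. Method A: enzyme added last; Method B: 1 h enzyme–compound preincubation.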

[1] = system: BT474 and HN5 tumor cell lines; assay: Methylene blue growth inhibition assay (cellular Method A); format: cell-based, Human; details: Homo sapiens, BT-474, 72 h, 3 days, read-out: Activity (Method): growth inhibition IC50 class
Outline: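 Growth inhibition measured by methylene blue staining of biomass (OD 620) after 3 days' compound exposure at 37° C, final DMSO 0.3%. Cell lines: BT474 (10,000/well), HN5 (3,000/well) and Colo205, all in DMEM with 10% FBS; IC50 fitted by nonlinear regression against vehicle-treated wells.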

[2] = Method B: enzyme mix pre-incubated with compound 1 hour at 20° C., started with substrate mix
[3] = Method A: substrate mix added first, reaction started with enzyme mix

| Structure (SMILES) | IC50 [1] [nM] | Activity (Method): pIC50 class against ErbB2 or EGFR (ErbB2 or EGFR; [2]) | Activity (Method): pIC50 class against ErbB2 or EGFR (ErbB2 or EGFR; [3]) |
| --- | --- | --- | --- |
| O=C(Nc1cccc(-c2nn3ccccc3c2-c2ccnc(Nc3cccc(F)c3)n2)c1)c1cccc(F)c1 [Example 17, 3-Fluoro-N-(3-{3-[2-(3-fluoro-phenylamino)-pyrimidin-4-yl]-pyrazolo[1,5-a]pyridin-2-yl}-phenyl)-benzamide] | 100 to 1000 | +++ (B) (at least one pIC50 measurement of greater than 7 against either ErbB2 or EGFR) | – |
| O=C(Nc1cccc(-c2nn3c(C(F)(F)F)cccc3c2-c2ccnc(Nc3ccccc3)n2)c1)c1c(F)cccc1F [Example 152, N-[3-(3-{2-[Phenylamino]-4-pyrimidinyl}-7-trifluoropyrazolo[1,5-b]pyridin-2-yl)phenyl]-2,6-difluorobenzamide] | 100 to 1000 | ++ (B) (at least one pIC50 measurement greater than 6 against either ErbB2 or EGFR but no measurement greater than pIC50 of 7) | – |
| Cn1cccc1C(=S)Nc1cccc(-c2nn3ccccc3c2-c2ccnc(Nc3ccc4c(c3)OCCO4)n2)c1 [Example 10, 1-Methyl-1H-pyrrole-2-carbothioic acid (3-{3-[2-(2,3-dihydro-benzo[1,4]dioxin-6-ylamino)-pyrimidin-4-yl]pyrazolo[1,5-a]pyridin-2-yl}-phenyl)-amide] | 100 to 1000 | – | ++ (A) (at least one pIC50 measurement greater than 6 against either ErbB2 or EGFR but no measurement greater than pIC50 of 7) |
| S=C(Nc1cccc(-c2nn3ccccc3c2-c2ccnc(Nc3ccc4c(c3)OCCO4)n2)c1)c1ccccc1Cl [Example 8, 2-Chloro-N-(3-{3-[2-(2,3-dihydro-benzo[1,4]dioxin-6-ylamino)-pyrimidin-4-yl]-pyrazolo[1,5-a]pyridin-2-yl}-phenyl)-thiobenzamide] | 100 to 1000 | – | ++ (A) (at least one pIC50 measurement greater than 6 against either ErbB2 or EGFR but no measurement greater than pIC50 of 7) |
| O=C(Nc1cccc(-c2nn3ccccc3c2-c2ccnc(Nc3ccc4cnccc4c3)n2)c1)c1c(F)cccc1F [Example 65, 2,6-Difluoro-N-(3-{3-[2-(6-isoquinolinylamino)-4-pyrimidinyl]pyrazolo[1,5-a]pyridin-2-yl}phenyl)benzamide] | > 1000 | ++ (B) (at least one pIC50 measurement greater than 6 against either ErbB2 or EGFR but no measurement greater than pIC50 of 7) | – |
| CS(=O)(=O)Cc1ccc(Nc2nccc(-c3c(-c4cccc(NC(=O)c5cc(F)ccc5F)c4)nn4ccccc34)n2)cc1 [Example 53, 2,5-Difluoro-N-(3-{3-[2-({4-[(methylsulfonyl)methyl]-phenyl}amino)-4-pyrimidinyl]pyrazolo[1,5-a]pyridin-2-yl}phenyl)benzamide] | 100 to 1000 | – | ++ (A) (at least one pIC50 measurement greater than 6 against either ErbB2 or EGFR but no measurement greater than pIC50 of 7) |
| O=C(Nc1cccc(-c2nn3ccccc3c2-c2ccnc(Nc3ccccc3)n2)c1)c1ccccn1 [Example 140] | 100 to 1000 | – | ++ (A) (at least one pIC50 measurement greater than 6 against either ErbB2 or EGFR but no measurement greater than pIC50 of 7) |
| O=C(Nc1cccc(-c2nn3ccccc3c2-c2ccnc(Nc3cccc(N4CCCC4=O)c3)n2)c1)c1cc(F)ccc1F [Example 49, 2,5-Difluoro-N-{3-[3-(2-{[3-(2-oxo-1-pyrrolidinyl)phenyl]amino}-4-pyrimidinyl)pyrazolo[1,5-a]pyridin-2-yl]phenyl}benzamide] | 100 to 1000 | – | +++ (A) (at least one pIC50 measurement of greater than 7 against either ErbB2 or EGFR) |
| O=C(c1ccccc1)c1ccc(Nc2nccc(-c3c(-c4cccc(NC(=O)c5c(F)cccc5F)c4)nn4ccccc34)n2)cc1 [Example 98, 2,6-Difluoro-N-{3-[3-(2-{[4-(phenylcarbonyl)phenyl]-amino}-4-pyrimidinyl)pyrazolo[1,5-a]pyridin-2-yl]phenyl}benzamide] | 100 to 1000 | – | ++ (A) (at least one pIC50 measurement greater than 6 against either ErbB2 or EGFR but no measurement greater than pIC50 of 7) |
| O=C(Nc1cccc(-c2nn3ccccc3c2-c2ccnc(Nc3cccc(F)c3)n2)c1)c1cccnc1 [Example 66, N-[3-(3-{2-[(3-fluorophenyl)amino]-4-pyrimidinyl}pyrazolo[1,5-a]pyridin-2-yl)phenyl]-3-pyridinecarboxamide] | 100 to 1000 | ++ (B) (at least one pIC50 measurement greater than 6 against either ErbB2 or EGFR but no measurement greater than pIC50 of 7) | – |
| O=C(Nc1cccc(-c2nn3ccccc3c2-c2ccnc(Nc3ccccc3)n2)c1)c1cccnc1 [Example 138, N-{3-[3-(2-Phenylamino-pyrimidin-4-yl)-pyrazolo[1,5-a]pyridin-2-yl]-phenyl}-nicotinamide] | 100 to 1000 | – | +++ (A) (at least one pIC50 measurement of greater than 7 against either ErbB2 or EGFR) |
| O=C(Nc1cccc(-c2nn3ccccc3c2-c2ccnc(Nc3cccc(C(F)(F)F)c3)n2)c1)c1c(F)cccc1F [Example 33, 2,6-Difluoro-N-{3-[3-(2-{[3-(trifluoromethyl)phenyl]-amino}-4-pyrimidinyl)pyrazolo[1,5-a]pyridin-2-yl]phenyl}benzamide] | 100 to 1000 | – | +++ (A) (at least one pIC50 measurement of greater than 7 against either ErbB2 or EGFR) |
| COc1ccc(Nc2nccc(-c3c(-c4cccc(NC(=O)c5c(F)cccc5F)c4)nn4c(C)cccc34)n2)cc1F [Example 157, 2,6-Difluoro-N-[3-(3-{2-[(3-fluoro-4-methoxy-phenyl)amino]pyrimidin-4-yl}-7-methylpyrazolo[1,5-a]pyridin-2-yl)phenyl]benzamide] | 100 to 1000 | – | ++ (A) (at least one pIC50 measurement greater than 6 against either ErbB2 or EGFR but no measurement greater than pIC50 of 7) |
| Cc1cccc2c(-c3ccnc(Nc4cccc(C(F)(F)F)c4)n3)c(-c3cccc(NC(=O)c4c(F)cccc4F)c3)nn12 [Example 155, 2,6-Difluoro-N-{3-[7-methyl-3-(2-{[3-(trifluoro-methyl)phenyl]amino}pyrimidin-4-yl)pyrazolo[1,5-a]pyridin-2-yl]phenyl}benzamide] | 100 to 1000 | – | ++ (A) (at least one pIC50 measurement greater than 6 against either ErbB2 or EGFR but no measurement greater than pIC50 of 7) |

Continued, in another order:

| IC50 [1] [nM] | Structure (SMILES) | Activity (Method): pIC50 class against ErbB2 or EGFR (ErbB2 or EGFR; [2]) | Activity (Method): pIC50 class against ErbB2 or EGFR (ErbB2 or EGFR; [3]) |
| --- | --- | --- | --- |
| < 100 | N#Cc1cccc(Nc2nccc(-c3c(-c4cccc(NC(=O)c5c(F)cccc5F)c4)nn4ccccc34)n2)c1 [Example 30, N-[3-(3-{2-[(3-cyanophenyl)amino]-4-pyrimidinyl}pyrazolo[1,5-a]pyridin-2-yl)phenyl]-2,6-difluorobenzamide] | – | +++ (A) (at least one pIC50 measurement of greater than 7 against either ErbB2 or EGFR) |
| < 100 | O=C(Nc1cccc(-c2nn3ccccc3c2-c2ccnc(Nc3ccccc3)n2)c1)c1c(F)cccc1F [Example 34, 2,6-Difluoro-N-(3-{3-[2-(phenylamino)-4-pyrimidinyl]pyrazolo[1,5-a]pyridin-2-yl}phenyl)benzamide] | +++ (B) (at least one pIC50 measurement of greater than 7 against either ErbB2 or EGFR) | – |
| < 100 | O=C(Nc1cccc(-c2nn3ccccc3c2-c2ccnc(Nc3cccc(F)c3)n2)c1)c1c(F)cccc1Cl [Example 37, 2-Chloro-6-fluoro-N-[3-(3-{2-[(3-fluorophenyl)amino]-4-pyrimidinyl}pyrazolo[1,5-a]pyridin-2-yl)phenyl]benzamide] | +++ (B) (at least one pIC50 measurement of greater than 7 against either ErbB2 or EGFR) | – |
| < 100 | O=C(Nc1cccc(-c2nn3ccccc3c2-c2ccnc(Nc3ccc(N4CCOCC4)c(F)c3)n2)c1)c1c(F)cccc1F [Example 99, 2,6-Difluoro-N-{3-[3-(2-{[3-fluoro-4-(4-morpholinyl)-phenyl]amino}-4-pyrimidinyl)pyrazolo[1,5-a]pyridin-2-yl]phenyl}benzamide] | – | +++ (A) (at least one pIC50 measurement of greater than 7 against either ErbB2 or EGFR) |
| < 100 | O=C(Nc1cccc(-c2nn3ccccc3c2-c2ccnc(Nc3cccc(F)c3)n2)c1)c1ccccc1F [Example 12, 2-Fluoro-N-(3-{3-[2-(3-fluoro-phenylamino)-pyrimidin-4-yl]-pyrazolo[1,5-a]pyridin-2-yl}-phenyl)-benzamide] | ++ (B) (at least one pIC50 measurement greater than 6 against either ErbB2 or EGFR but no measurement greater than pIC50 of 7) | – |
| < 100 | O=C(Nc1cccc(-c2nn3ccccc3c2-c2ccnc(Nc3cccc(F)c3)n2)c1)c1c(F)cccc1C(F)(F)F [Example 13, 2-Fluoro-N-(3-{3-[2-(3-fluoro-phenylamino)-pyrimidin-4-yl]-pyrazolo[1,5-a]pyridin-2-yl}-phenyl)-6-trifluoromethyl-benzamide] | +++ (B) (at least one pIC50 measurement of greater than 7 against either ErbB2 or EGFR) | – |
| < 100 | O=C(Nc1cccc(-c2nn3ccccc3c2-c2ccnc(Nc3ccc(N4CCOCC4)cc3)n2)c1)c1c(F)cccc1F [Example 27, 2,6-Difluoro-N-{3-[3-(2-{[4-(4-morpholinyl)phenyl]amino}-4-pyrimidinyl)pyrazolo[1,5-a]pyridin-2-yl]phenyl}benzamide] | ++ (B) (at least one pIC50 measurement greater than 6 against either ErbB2 or EGFR but no measurement greater than pIC50 of 7) | – |
